Values of other authors in paper PMC8537988, “Re-Use of Caco-2 Monolayers in Permeability Assays—Validation Regarding Cell Monolayer Integrity” (Pharmaceutics, 2021).

Columns and labels:
[1] = tested on: transporters in the membrane (influx or efflux); parameters: method as in PMID 9213361; settings: cited from earlier work
[2] = tested on: Caco-2 monolayers; parameters: method as in PMID 34247356; settings: day 23 post-seeding, 90 min sampling interval; cited from earlier work

Lucifer yellow CH di-potassium salt [LY]
substrate of transporters in the membrane (influx or efflux) [1]: not a substrate of transporters in the membrane (influx or efflux) | amount of LY that permeates through Caco-2 monolayers [2]: 0.27%
